In the NIST ThermoML archive (doi:10.1021/je200093f):
Values joined by “and” are separate entries in the source; they are usually repeats but may differ in a detail not shown here. Equal values may be shown once.

How the values were obtained:
[1] = 298.15 K; 101.33 kPa; Liquid; Vibrating tube method
[2] = xn = mol fraction of the nth substance listed; conditions: 298.15 K, 101 kPa, Liquid, Vibrating tube method
[3] = excess molar enthalpy (molar enthalpy of mixing); xn = mol fraction of the nth substance listed; conditions: 298.15 K, 101 kPa, Liquid, Calvet calorimetry

Cn1ccnc1 [1-methylimidazole]
Conditions	mass density [kg/m3]
[1]	1031.14

Cn1ccnc1 [1-methylimidazole] + CO
Conditions	excess molar enthalpy, x1 = 0.005084	excess molar enthalpy, x1 = 0.007607 [kcal/mol]	excess molar enthalpy, x1 = 0.01012 [kcal/mol]	excess molar enthalpy, x1 = 0.01261 [kcal/mol]	excess molar enthalpy, x1 = 0.0151 [kcal/mol]	mass density, x1 = 0.005084	mass density, x1 = 0.007607	mass density, x1 = 0.01012	mass density, x1 = 0.01261	mass density, x1 = 0.0151
[2]	–	–	–	–	–	789.231 kg/m3 and 789.234 kg/m3	790.606 kg/m3 and 790.615 kg/m3	791.972 kg/m3 and 791.975 kg/m3	793.304 kg/m3 and 793.323 kg/m3	794.617 kg/m3 and 794.633 kg/m3
[3]	-0.00838 kcal/mol and -0.00841 kcal/mol	-0.0126	-0.0167	-0.0208	-0.0249	–	–	–	–	–

Cn1ccnc1 [1-methylimidazole] + O
Conditions	excess molar enthalpy, [3] [kcal/mol]	mass density, [2] [kg/m3]
x1 = 0.001133	-0.00255	997.279
x1 = 0.001134	-0.00254	997.281
x1 = 0.002264	-0.00507	997.513
x1 = 0.002265	-0.00505	997.514
x1 = 0.003392	-0.00759	997.75
x1 = 0.003394	-0.00757	997.75
x1 = 0.004518	-0.0101	997.985
x1 = 0.00452	-0.01	997.986
x1 = 0.005642	-0.0126	998.222
x1 = 0.005644	-0.0125	998.246
x1 = 0.006765	-0.015	998.459
x1 = 0.006766	-0.015	998.483

Cc1cccc(C)n1 [2,6-dimethylpyridine]
Conditions	mass density [kg/m3]
[1]	918.19

Cc1cccc(C)n1 [2,6-dimethylpyridine] + CO
Conditions	excess molar enthalpy, [3]	mass density, [2]
x1 = 0.001741	-0.00321 kcal/mol and -0.00319 kcal/mol	–
x1 = 0.003476	-0.00637 kcal/mol and -0.00641 kcal/mol	788.131 kg/m3 and 788.126 kg/m3
x1 = 0.005205	-0.0096 kcal/mol	788.964 kg/m3
x1 = 0.005206	-0.00957 kcal/mol	788.971 kg/m3
x1 = 0.006928	-0.0128 kcal/mol	789.788 kg/m3
x1 = 0.006929	-0.0127 kcal/mol	789.802 kg/m3
x1 = 0.008643	-0.0159 kcal/mol	790.602 kg/m3
x1 = 0.008647	-0.0159 kcal/mol	790.625 kg/m3
x1 = 0.01035	-0.019 kcal/mol	791.405 kg/m3
x1 = 0.01036	-0.019 kcal/mol	791.414 kg/m3

Cc1cccc(C)n1 [2,6-dimethylpyridine] + O
Conditions	excess molar enthalpy, [3] [kcal/mol]	mass density, [2] [kg/m3]
x1 = 0.000772	-0.00277	996.946
x1 = 0.000773	-0.00281	996.945
x1 = 0.001543	-0.00565	996.862
x1 = 0.001544	-0.00567	996.861
x1 = 0.002312	-0.00855	996.792
x1 = 0.002314	-0.0086	996.791
x1 = 0.00308	-0.0115	996.732
x1 = 0.003083	-0.0115	996.734
x1 = 0.003847	-0.0144	996.685
x1 = 0.003851	-0.0144	996.684
x1 = 0.004615	-0.0173	996.644
x1 = 0.004618	-0.0173	996.644

Cc1cccnc1 [3-methylpyridine]
Conditions	mass density [kg/m3]
[1]	952.61

Cc1cccnc1 [3-methylpyridine] + CO
Conditions	excess molar enthalpy, [3] [kcal/mol]	mass density, [2]
x1 = 0.002075	–	787.397 kg/m3
x1 = 0.004143	-0.00457	788.32 kg/m3
x1 = 0.004144	-0.00455	788.293 kg/m3
x1 = 0.006201	-0.00684	789.24 kg/m3
x1 = 0.006203	-0.00681	789.213 kg/m3
x1 = 0.008251	-0.00912	790.158 kg/m3
x1 = 0.008253	-0.00905	790.117 kg/m3
x1 = 0.01029	-0.0113	791.057 kg/m3 and 791.007 kg/m3
x1 = 0.01232	-0.0135	791.892 kg/m3

Cc1cccnc1 [3-methylpyridine] + O
Conditions	excess molar enthalpy, [3]	mass density, [2]
x1 = 0.000922	-0.00213 kcal/mol and -0.00212 kcal/mol	997.03 kg/m3 and 997.031 kg/m3
x1 = 0.001842	-0.00422 kcal/mol and -0.0042 kcal/mol	997.017 kg/m3 and 997.018 kg/m3
x1 = 0.00276	-0.00626 kcal/mol	997.008 kg/m3
x1 = 0.002761	-0.00629 kcal/mol	997.007 kg/m3
x1 = 0.003677	-0.00828 kcal/mol	996.999 kg/m3
x1 = 0.003678	-0.00833 kcal/mol	996.998 kg/m3
x1 = 0.004592	-0.0103 kcal/mol	996.991 kg/m3
x1 = 0.004594	-0.0103 kcal/mol	996.989 kg/m3
x1 = 0.005507	-0.0122 kcal/mol	996.982 kg/m3
x1 = 0.005509	-0.0122 kcal/mol	996.98 kg/m3

Cc1ccncc1 [4-methylpyridine]
Conditions	mass density [kg/m3]
[1]	949.87

Cc1ccncc1 [4-methylpyridine] + CO
Conditions	excess molar enthalpy, [3]	mass density, [2]
x1 = 0.004138	-0.00498 kcal/mol	788.325 kg/m3
x1 = 0.004139	-0.00496 kcal/mol	788.319 kg/m3
x1 = 0.006195	-0.00746 kcal/mol and -0.00747 kcal/mol	789.246 kg/m3 and 789.247 kg/m3
x1 = 0.008243	-0.00988 kcal/mol	790.15 kg/m3
x1 = 0.008244	-0.00991 kcal/mol	790.152 kg/m3
x1 = 0.01028	-0.0123 kcal/mol	791.066 kg/m3 and 791.039 kg/m3
x1 = 0.01231	-0.0146 kcal/mol	791.923 kg/m3
x1 = 0.01232	-0.0146 kcal/mol	791.924 kg/m3
